Earlier results on 13 compounds are cited in the PKSmart pharmacokinetics tables (Seal et al. 2025).

The term MRT denotes a mean duration of stay, worked out from the concentration-time curve. The term Vd denotes a proportionality between amount in the body and measured concentration, not a real space. In general, clearance refers to the rate of elimination divided by the concentration. A word on the half-life: it is the time needed for the level to fall by half in the phase considered. The term fraction unbound denotes the share of the substance not bound to proteins or other matrix.

Data set [1] is described as follows: Lombardo, Berellini, Obach 2018, Drug Metab Dispos 46:1466, doi 10.1124/dmd.118.082966. The conditions noted are these: human; for MRT / Vd / clearance / half-life: in vivo, iv; for fraction unbound: plasma.
Data set [2] in a line: Lombardo et al. 2013, J Clin Pharmacol 53:178, doi 10.1177/0091270012440282. The conditions noted are these: for Vd / clearance: in vivo, iv; for fraction unbound: plasma.

For the compound `COc1cc2nc(N3CCN(C(=O)C(C)OC)CC3)nc(N)c2cc1OC` (centres undefined), in data set [1], the MRT was 13.7 h, the Vd is 0.44 L/kg and the clearance is 0.53 mL/min/kg. For the same compound, in data set [2] (rat), the Vd is 5.9 L/kg and the clearance was 44.2 mL/min/kg.

Consider `CO[C@@]1(NC(=O)Cc2cccs2)C(=O)N2C(C(=O)O)=C(COC(N)=O)CS[C@@H]21`, for which, in data set [1], the MRT is 0.79 h, the volume of distribution (Vd) was 0.17 L/kg, the clearance is 3.6 mL/min/kg and the half-life is 0.81 h. Also, in data set [1], the fraction unbound was 0.73. Besides, in data set [2] (dog), the Vd was 0.6 L/kg and the clearance was 11 mL/min/kg.

For the compound `CCC1(c2ccccc2)C(=O)NC(=O)NC1=O`, in data set [1], the MRT was 140 h, the Vd was 0.54 L/kg, the clearance was 0.063 mL/min/kg and the half-life was 99 h. In data set [2] (dog), the Vd is 0.79 L/kg, the clearance is 0.1 mL/min/kg and the fraction unbound is 0.54. Besides, in data set [2] (rat), the Vd is 1.02 L/kg, the clearance is 0.8 mL/min/kg and the fraction unbound is 0.64.

`CCCCN1CCCCC1C(=O)Nc1c(C)cccc1C` (centres undefined): in data set [1], the MRT is 2.12 h, the Vd is 0.665 L/kg, the clearance was 6.5 mL/min/kg and the half-life was 1.95 h. The free fraction (fraction unbound) in data set [1] was 0.043. In data set [2] (dog), the volume of distribution (Vd) is 0.7 L/kg, the clearance is 32 mL/min/kg and the fraction unbound is 0.11. For the same compound, in data set [2] (monkey), the Vd is 0.66 L/kg, the clearance is 10 mL/min/kg and the fraction unbound is 0.051. Also, in data set [2] (rat), the Vd is 2.4 L/kg, the clearance was 76 mL/min/kg and the fraction unbound is 0.23.

As for `COCC(=O)O[C@]1(CCN(C)CCCc2nc3ccccc3[nH]2)CCc2cc(F)ccc2[C@@H]1C(C)C`, in data set [1], the MRT is 13 h, the distribution volume (Vd) is 3.1 L/kg, the clearance is 4 mL/min/kg and the half-life is 13 h. Besides, in data set [1], the fraction unbound was 0.005. Moreover, in data set [2] (dog), the Vd was 9.7 L/kg and the clearance was 18.4 mL/min/kg. The clearance in data set [2] (rat) was 94 mL/min/kg.

For `CN[C@@H](C)Cc1ccccc1`, in data set [1], the MRT was 16 h, the Vd is 4.3 L/kg, the clearance is 4.4 mL/min/kg and the half-life was 12 h. In data set [1], the fraction unbound was 0.85. In data set [2] (rat), the volume of distribution (Vd) was 9 L/kg, the clearance was 126 mL/min/kg and the fraction unbound is 0.92.

In the case of `COc1nc(C)nc(Cl)c1NC1=NCCN1`, in data set [1], the MRT was 2.7 h, the Vd was 1.8 L/kg, the clearance was 11 mL/min/kg and the half-life is 2.2 h. Moreover, in data set [2] (rat), the Vd was 3.2 L/kg and the clearance is 50.1 mL/min/kg.

Turning to `NC1(C(=O)O)CC1`, the MRT in data set [1] is 7.8 h. In addition, the Vd in data set [1] is 0.73 L/kg; in data set [2] (dog) it was 0.7 L/kg; in data set [2] (monkey), 0.72 L/kg; in data set [2] (rat), 0.64 L/kg. The clearance was 1.5 mL/min/kg in data set [1], 0.4 mL/min/kg in data set [2] (dog), 3.1 mL/min/kg in data set [2] (monkey) and 3.2 mL/min/kg in data set [2] (rat). The half-life in data set [1] was 5.9 h.

For `COc1cc2nc(N3CCN(C(=O)C4COc5ccccc5O4)CC3)nc(N)c2cc1OC` (centres undefined), in data set [1], the MRT was 14 h, the Vd was 1.3 L/kg and the half-life is 10 h. Further, in data set [2] (dog), the Vd is 5 L/kg, the clearance was 13 mL/min/kg and the fraction unbound was 0.0653. In addition, in data set [2] (rat), the Vd is 3 L/kg and the fraction unbound was 0.03.

As for `CO[C@@]1(NC(=O)C(C(=O)O)c2ccc(O)cc2)C(=O)N2C(C(=O)O)=C(CSc3nnnn3C)CO[C@@H]21` (some centres undefined), in data set [1], the MRT is 3.9 h, the Vd was 0.17 L/kg, the clearance is 0.72 mL/min/kg and the half-life is 2.9 h. Also, the fraction unbound in data set [1] was 0.39. Further, in data set [2] (dog), the Vd was 0.2 L/kg, the clearance was 2.2 mL/min/kg and the fraction unbound is 0.66. Besides, in data set [2] (monkey), the Vd is 0.19 L/kg, the clearance was 2.3 mL/min/kg and the fraction unbound is 1. Besides, in data set [2] (rat), the Vd is 0.25 L/kg, the clearance is 9.1 mL/min/kg and the unbound share (fraction unbound) was 1.

In the case of `CCCCS(=O)(=O)NC(Cc1ccc(OCCCCC2CCNCC2)cc1)C(=O)O` (centres undefined), in data set [1], the MRT is 1.8 h, the Vd is 0.34 L/kg, the clearance is 3 mL/min/kg and the half-life was 1.6 h. Also, the fraction unbound in data set [1] was 0.36. In data set [2] (dog), the Vd is 0.52 L/kg, the clearance was 36.4 mL/min/kg and the fraction unbound is 0.55. Besides, in data set [2] (rat), the Vd was 1.42 L/kg and the fraction unbound was 0.15.

Turning to `CC[C@@]1(O)C(=O)OCc2c1cc1n(c2=O)Cc2cc3c(CN(C)C)c(O)ccc3nc2-1`, the fraction unbound in data set [1] is 0.65; in data set [2] (monkey), 0.8; in data set [2] (rat) it was 0.747.

For the compound `CN(C(=O)c1c(O)c2ccccc2n(C)c1=O)c1ccccc1`, in data set [1], the mean residence time (MRT) is 43 h, the distribution volume (Vd) is 0.21 L/kg, the clearance is 0.082 mL/min/kg and the half-life was 31 h. For the same compound, in data set [2] (rat), the distribution volume (Vd) is 0.32 L/kg and the clearance was 0.17 mL/min/kg.
